The values below come from patent US20250244312A1, “EX VIVO COLONIC BIOPSY PLATFORM TO EVALUATE MULTI-OMIC SIGNATURES FOR SCREENING CANDIDATE THERAPEUTICS” (Athos Therapeutics, Inc., priority 2020, published 2025).

Peptide text beside a SMILES is read from it. l = locked nucleic acid (LNA); [5mC] = 5-methylcytosine; d = 2'-deoxy (DNA)

What all share (assay type): cell-based, human
The test system of one series is IBD colonic explants. In words: Cell viability of colonic explants (CellTiter-Blue assay). The procedure:
(§1) Step 1: A biopsy was obtained from a macroscopically disease area of the inflammatory intestinal mucosa of an IBD patient. Samples can be from small or large intestine and the patient can be afflicted with, or suspected of having, UC or CD. The medium used to transport mucosal colonic biopsies from IBD patients was pre-cooled on ice, and comprised: Dulbecco's Modified Eagle Medium (DMEM) liquid (High Glucose), 4 mM L-alanyl-L-glutamine dipeptide, 1% penicillin/streptomycin and […] gentamicin. Tissue culture was initiated less than 1 hour after collection.
Step 3: Cell viability evaluation. To evaluate the effects of any drug using a colonic explant assay, the viability of the colonic explant in culture is examined. The experimental conditions related to the culture viability of the colonic explants were optimized by focusing on the media composition during the transfer of the biopsy from the patient biopsy collection site to the laboratory and the duration of culturing the explant.
CellTiter-Blue assay (Promega) was used to evaluate cell viability of the colonic explants. Briefly, the CellTiter-Blue reagent was added in the culture and the fluorescent signal was measured (560/590 nm) after 1 h of incubation in 37° C. […]

The next series has as its system TNFA. In words: TNFA level in supernatant of colonic explant culture (ELISA), ex vivo biopsy high throughput platform. To be noted: 12 h; for TNFA levels / effectiveness at reducing TNFA levels, compared with the other inhibitors: 10 uM; for TNFA levels: supernatant of UC active disease colonic biopsy replicate, vs untreated control well; for effectiveness at reducing TNFA levels, compared with the other inhibitors: UC colonic explant. The procedure: as §1
(§2) Step 2: Once in the laboratory, the biopsy was washed in Hank's Balanced Salt Solution buffer for a few minutes (e.g., 2-5 min) and cut with sterile scalpels to create biopsy pieces (approximately 2-5 um sections). Media comprising Dulbecco's Modified Eagle Medium (DMEM) liquid (High Glucose), 4 mM L-alanyl-L-glutamine dipeptide, 1% FBS, 1% non-essential amino acids, 1% Sodium Pyruvate, 1% penicillin/streptomycin, […] gentamicin and 5 ug/ml insulin-transferrin-selenium-X, was pre-warmed at 37° C. and added to the pieces of the biopsy. The average volume of media for each biopsy was 1.5 mL, which allows generation of 10 replicates in a 96 well plate (150 uL/well) or 60 replicates in a 384 well plate (25 uL/well). The plates then were cultured in a humidified chamber with 95% O2 and 5% CO2. The 96-and 384-well plates are two non-limiting embodiments of the platform assay disclosed herein, though additional embodiments of the high throughput platform disclosed herein can be used to predict drug responses by evaluating multi-omic signatures in other multi-well formats.
(§3) An embodiment of the ex vivo biopsy high throughput platform was used to assess the effects of G9A inhibitors BIX01294 (cat. No 3364, Tocris) and UNC0642 (cat. No 5132, Tocris), JMJD3 inhibitors GSK-J4 (cat. No 4594, Tocris) and JIB-04 (cat. No 4972, Tocris), and an EZH2 inhibitor UNC1999 (cat. No 4904, Tocris) (10 uM) on a multi-omic response, evaluating cytokine production levels and global chromatin H3K9me2 and H3K27me3 levels in UC active disease colonic explants.
(§4) Specifically, a UC active disease colonic biopsy was processed as described in Example 1 and separated into 6 replicates in a 96-well plate. One well was used as control and the rest were treated with each compound at the concentration of 10 uM. Twelve hours later, 50 uL of supernatant was collected to evaluate IL-1B (#KHC0011, ThermoFisher) and TNFA levels (#BMS223HS, ThermoFisher); meanwhile, the tissue pellet was also collected and processed to check H3K9me2 (#P-3032, Epigentek) and H3K27me3 (#P-3020,Epigentek) levels by ELISA assay.
(§5) The biopsy was processed as described in Example 1. Briefly, one well was used as control and treated with RNA-negative control (miR-NC, cat no. YI00199006, Qiagen) (1 uM), a second well was treated with the miR-24-A inhibitor (1 uM), and a third well was treated with miR-24-B inhibitor (1 uM). 50 uL of supernatant was collected to evaluate IL1B and TNFA levels and tissue pellet was collected and processed for RNA extraction (miRNeasy Kit, Qiagen). MicroRNA LNA miRNA PCR assays (Qiagen) were performed for miR-24-3p (cat.no YP00204260, Qiagen).

For the next series, the system named is H3K27me3. In words: Global chromatin H3K27me3 level in colonic explant tissue pellet (ELISA). Conditions: 10 uM, 12 h, tissue pellet of UC colonic explant. The procedure: as §1
as §2, with “formats. […]” for “formats.”
Background: ELISA stands for enzyme-linked immunosorbent assay.

The test system of the next series is IL-1B. In words: IL-1B level in supernatant of colonic explant culture (ELISA), ex vivo biopsy high throughput platform. To be noted: 12 h; for IL-1B levels / effectiveness at reducing IL1B levels, compared with the other inhibitors: 10 uM; for IL-1B levels: supernatant of UC active disease colonic biopsy replicate, vs untreated control well; for effectiveness at reducing IL1B levels, compared with the other inhibitors: UC colonic explant. The procedure: as §1, §2, §3, §4, §5

The next series deals with H3K9me2. In words: Global chromatin H3K9me2 level in colonic explant tissue pellet (ELISA). To be noted: 10 uM, 12 h, tissue pellet of UC colonic explant. The procedure: as §1
as §2, with “The 96-and 384-well plates are two non-limiting embodiments of the platform assay disclosed herein, though additional embodiments of the high throughput platform disclosed herein can be used to predict drug responses by evaluating multi-omic signatures in other multi-well formats.” left out

The subject of a further series is miR-24-3p. In words: miR-24-3p expression in UC colonic explant culture (LNA miRNA PCR assay). Conditions: 1 uM, 12 h, UC colonic explant tissue pellet. On the procedure: as §1
as §2, with “The 96-and 384-well plates are two non-limiting embodiments of the platform assay disclosed herein, though additional embodiments of the high throughput platform disclosed herein can be used to predict drug responses by evaluating multi-omic signatures in other multi-well formats.” left out

Where [1] appears, read: 1 uM, UC colonic explant supernatant, control miR-NC.

Take `C[C@H](N)C(=O)N[C@@H](CCC(N)=O)C(=O)O` [L-alanyl-L-glutamine dipeptide] (H-Ala-Gln-OH): the “cell viability of colonic explants” value in the series with IBD colonic explants (added to the transfer media (DMEM, penicillin/streptomycin, gentamicin)) is “substantial increase in cell viability”. Also, in the series with IBD colonic explants (in transfer media), the “concentration identified to have the highest cell viability” value is 4 mM.

Take `Clc1ccc(N/N=C(\c2ccccc2)c2ccccn2)nc1` [JIB-04]: in the series with TNFA, the TNFA levels result is given as “reduced”. Further, the H3K27me3 levels result in the series on H3K27me3 is on record as “increased”. In addition, the IL-1B levels result with IL-1B was “reduced”.

Regarding `CCOC(=O)CCNc1cc(N2CCc3ccccc3CC2)nc(-c2ccccn2)n1` [GSK-J4], in the series with TNFA, the “effectiveness at reducing TNFA levels, compared with the other inhibitors” value was “more effective than BIX01294 and JIB-04”; the TNFA levels result is given as “reduced”. Further, the H3K27me3 levels entry with H3K27me3 is listed as “increased”. Also, in the series on IL-1B, the “effectiveness at reducing IL1B levels, compared with the other inhibitors” value is “more effective than BIX01294 and JIB-04”; the IL-1B levels entry was “reduced”.

Turning to `COc1cc2nc(N3CCCN(C)CC3)nc(NC3CCN(Cc4ccccc4)CC3)c2cc1OC` [BIX01294], the TNFA levels entry in the series on TNFA is recorded as “reduced”. For the same compound, the H3K9me2 levels entry in the series with H3K9me2 is “reduced”. In the series with IL-1B, the IL-1B levels entry is “reduced”.

As for `CCCc1cc(C)[nH]c(=O)c1CNC(=O)c1cc(-c2ccc(N3CCN(C(C)C)CC3)nc2)cc2c1cnn2C(C)C` [UNC1999], the TNFA levels result in the series with TNFA is listed as “increased”. For the same compound, the H3K27me3 levels entry with H3K27me3 is “reduced”. In addition, the IL-1B levels result in the series on IL-1B was “increased”.

As to `COc1cc2c(NC3CCN(C(C)C)CC3)nc(N3CCC(F)(F)CC3)nc2cc1OCCCN1CCCC1` [UNC0642], in the series with TNFA, the “effectiveness at reducing TNFA levels, compared with the other inhibitors” value is “more effective than BIX01294 and JIB-04”; the TNFA levels entry is reported as “reduced”. For the same compound, the H3K9me2 levels result in the series on H3K9me2 is “reduced”. In the series with IL-1B, the “effectiveness at reducing IL1B levels, compared with the other inhibitors” value is “more effective than BIX01294 and JIB-04”; the IL-1B levels entry is “reduced”.

“5-CTG^mCTGAA^mCTGAG^mCCA-3 (antisense CTGCTGAACTGAGCCA; sugars from the 5' end l3 d6 l2 d3 l2, [5mC] at 4, 9, 14, all phosphorothioate, methylation of C not given here) [miR-24-A, antisense-miR-24-3p compound; phosphorothioate linkages bases 1-16, LNA at bases 1-3, 10-11, 15-16,5-methylcytosine at positions 4,9, 14]”: the “reducing TNFA levels, compared to miR-24-B inhibitor” value with TNFA (setting [1]) was “more effective”. In addition, in the series on miR-24-3p, the “miR-24-3p expression levels, compared to miR-24-B inhibitor” value is “more effectively suppressed”. Further, in the series with IL-1B (setting [1]), the “reducing IL1B levels, compared to miR-24-B inhibitor” value is “more effective”.
